The record followed here is paper PMC5896380, “Selective imaging of cathepsin L in breast cancer by fluorescent activity-based probes” (Chemical Science, 2018).

The test system of test [1] is cathepsins L and B in MDA-MB-231 cells. The test is described as follows: Cathepsin labeling in MDA-MB-231 cells by SDS-PAGE and western blotting. It is filed as cell-based, human. As to conditions: MDA-MB-231 cells. The procedure:
Low passage MDA-MB-231 cells were seeded on 12-well plates (200 000 cells per well per 1 mL of medium) and cultured in Dulbecco’s Modification of Eagle’s Medium (DMEM) supplemented with 10% fetal bovine serum, 2 mM of L-glutamine, 100 units per mL penicillin and 100 μg mL^–1 streptomycin. […] To control for non-specific binding, the cells were preincubated with E64d (25 μM) for 2 hours prior to probe addition. At various time points, the medium was aspirated and the cells were gently washed twice with 1 mL of Dulbecco’s Phosphate-Buffered Saline (DPBS) and then trypsinized, harvested and centrifuged for 10 min (500 × g). The supernatants were removed by aspiration and the pellets washed with 1 mL of DPBS and centrifuged (5 min, 500 × g). The supernatants were again removed and the pellets solubilized in 100 μL 1× SDS/DTT and then boiled for 5 min. Each sample was then cooled to room temperature and sonicated (Branson Sonifier 250, duty cycle: 50, output control: 5, cycles: 5) and then 30 μL was loaded on 4–12% Bis-Tris Plus gels and run for 30 min at 200 V with a SDS-PAGE Standards/Broad Range ladder. Proteins were transferred to a 0.2 μm nitrocellulose membrane for 1 hour at 10 V and then Ponceau staining was used to verify equal loading. Membranes were blocked with 2.5% BSA in Tris-buffered saline/0.1% v/v Tween 20 (TBS-T) for 1 hour at room temperature. Cathepsins L and B were detected by primary goat anti-hCathepsin L (R&D, AF952, 0.2 mg mL^–1, 1 : 2000) and goat anti-hCathepsin B (R&D, AF953, 0.2 mg mL^–1, 1 : 1000) antibodies, respectively, followed by incubation with a secondary antibody (IRDye® 800CW, LI-COR, donkey anti-goat, 1 : 10 000). The membranes were incubated with primary antibodies for 2 hours, and with (fluorescent) secondary antibodies for 30 min (both in TBS-T at room temperature). The fluorescence was read at 700 nm (Cyanine5; excitation 685 nm) and 800 nm (secondary antibody; excitation 785 nm) using an Odyssey fluorescence imaging system (LI-COR). The images were analyzed using Image Studio software.
(In general: A western blot detects proteins with antibodies after separation by electrophoresis.)

A further test has as its target T1, cathepsin L (Homo sapiens, UniProt P07711).
T1 construct: made in house
Put plainly: kobs/I of activity-based probes, cathepsin L. It counts as biochemical. As to conditions: Fig. 6A; pseudo-first order, probe at least 5-fold excess over cathepsin, 100 μM ACC substrate; pH 5.5, 37 °C; triplicate, SD below 20%. As to the method: All kinetic experiments were performed using fMax (Molecular Devices) and CLARIOStar (BMG LABTECH) spectrofluorimeters operating in kinetic mode using 96-well plates. ACC-labeled substrates were screened using 355 nm and 460 nm wavelengths (excitation and emission, respectively). […] The buffer was prepared at room temperature and the enzyme kinetic studies were performed at 37 °C.
For the kinetic studies, five recombinant human cathepsins (B, L, V, K and S) were expressed and purified and active site titrated using an E64 inhibitor. The kobs/I parameter was measured under pseudo-first order kinetic conditions, as described.[40] The cathepsin of interest was mixed with various concentrations of probe (at least 5-fold excess over cathepsin) and 100 μM ACC-fluorescence substrate. The experiments were repeated at least three times, and the results are presented as an average. The SDs were below 20%.

Test [2] has as its system cathepsin L in MDA-MB-231 cells. The test is described as follows: Weighted colocalization of probe with cathepsin L antibody, confocal microscopy. It counts as cell-based, human. The settings on record: 1 μM probe. As to the method: Glass coverslips 15 mm in diameter were placed in 12-well plates and coated with poly-D-lysine (500 μL, 1 mg mL^–1 in water, Specialty Media) for 30 minutes. The poly-D-lysine was aspirated and the coverslips were washed twice with sterile water and air-dried. Next, low passage MDA-MB-231 cells in DMEM (100 000 cells per mL) were added to wells (1 mL per well) and allowed to attach for 2 hours. Cells were then treated with Cy5-labeled probes (1 μM) for 8 or 24 hours. The control cells were preincubated with E64d for 2 hours. After various incubation times, the medium was removed and the cells were gently washed twice with DPBS (1 mL each). The cells were then fixed with ice-cold methanol (500 μL per well) for 15 minutes at –20 °C. The methanol was gently removed and the fixed cells were washed twice with DPBS, blocked and permeabilized with 10% BSA in DPBS (with 0.5% Triton-X, v/v) for 1 hour at room temperature, and washed twice with 3% BSA in DPBS (with 0.5% Triton-X, v/v). Cathepsins L and B were detected by primary goat anti-hCathepsin L (R&D, AF952, 0.2 mg mL^–1, 1 : 200) and goat anti-hCathepsin B (R&D, AF953, 0.2 mg mL^–1, 1 : 80), respectively, in 3% BSA in DPBS (with 0.5% Triton-X, v/v) for 2 hours at room temperature. The antibodies were removed and the cells were washed twice with 3% BSA in DPBS (with 0.5% Triton-X, v/v) and labeled with a secondary antibody (Alexa Fluor™ 488 donkey anti-goat IgG (H + L), A11055, Invitrogen, 1 : 500) in DPBS (with 0.5% Triton-X, v/v) for 1 hour at room temperature. Next, the cells were washed twice with DPBS, and coverslips were mounted using Vectashield mounting medium fluorescence containing DAPI (Vector Lab. H-1000). In brief, a drop of mounting medium was placed on the Superfrost Plus microscope slide (Fisher Scientific, no. 12-550-15) and the coverslip was placed on the drop upside-down. […] DAPI was detected using the UV channel, the Cy5 probe was detected with a Cy5 filter (excitation at 647 nm (Axio Observer) or 633 nm (Zeiss LSM), emission at 667 nm; red channel) and cathepsins/secondary antibodies were read using FITC filters (excitation at 495 nm (Axio Observer) or 488 nm (Zeiss LSM), emission at 517 nm; […]; green channel). All images were acquired in .tiff format in MetaMorph software or in .lsm format in ZEN software and analyzed using ImageJ and ZEN software. […]
To quantify ABP/cathepsin colocalization we calculated weighted colocalization coefficients between the MP-cL3 ABP (red) and cathepsin L (green) and between the MP-cL3 ABP (red) and cathepsin B (green) using ZEN 2011 software. […]

T1 sequence (P07711 114-333): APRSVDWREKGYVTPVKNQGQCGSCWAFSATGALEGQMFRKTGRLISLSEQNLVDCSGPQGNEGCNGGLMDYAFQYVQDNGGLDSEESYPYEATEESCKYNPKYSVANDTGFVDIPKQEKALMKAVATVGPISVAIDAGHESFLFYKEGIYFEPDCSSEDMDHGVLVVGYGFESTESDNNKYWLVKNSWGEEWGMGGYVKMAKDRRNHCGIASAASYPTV

On to “Cy5-6-ahx-His-DThr-Phe(F5)-Cys(Bzl)-AOMK [MP-cL3]”, for which the “incubation time up to which only cathepsin L is labeled (no labeling of cathepsin B)” value in test [1] (1 μM probe) is given as “up to 8 hours”. In test [1] (1 μM probe, 0–18 hours), the “incubation time after which probe labeling is detectable in cells” value stood at 1 h. In test [1] (5 μM probe, 2-16 hours), the “incubation time up to which only cathepsin L is labeled” value is “up to two”. In addition, at cathepsin L, the “kobs/I Cath-L” value is recorded as 322,000 M^-1s^-1. Besides, the weighted colocalization coefficient is on record as 0.928 in test [2] (CatL ab (8h), single cells analysis, 98 single cells); 0.937 in test [2] (CatL ab (8h), whole pictures analysis, 8 images); 0.695 in test [2] (CatL ab (24h), single cells analysis, 59 single cells); 0.725 in test [2] (CatL ab (24h), whole pictures analysis, 8 images).
